Measurements taken from patent publication US20070178045A1, “Cyclopeptide derivatives with anti-integrin activity” (priority 2004, published 2007).
“And” between values parts separate entries of the source, which are not always exact repeats. Equal values may be shown once.

Key:
[1] = target: T1, purified αvβ3 receptor (Homo sapiens, UniProt P05106+P06756); test: Binding to integrin αvβ3 receptors ([125I]echistatin competition); settings: inhibition of [125I]echistatin 0.05 nM binding to purified αvβ3 receptor; read-out: αvβ3 IC50 ± SD
T1 construct: purchased Chemicon CC1020
Description: Binding to Integrin αvβ3 Receptors
(§1) An aliquot of 100 μl was added to 96-well plates and incubated overnight at +4° C. Plates were washed once with buffer (50 mM Tris, pH 7.4, 100 mM NaCl, 2 mM CaCl2, 1 mM MgCl2, 1 mM MnCl2, 1% bovine serum albumin) and then incubated for another 2 hours at room temperature. Plates were washed twice with the same buffer and incubated for 3 hours at room temperature with the radioactive ligand [^125I]echistatin (Amersham Pharmacia Biotech) 0.05 nM in the presence of competition ligands. At the end of incubation, the wells were washed and the radioactivity determined using a gamma counter (Packard). Non-specific binding of the ligand was determined in the presence of excess cold echistatin (1 μM).
(§2) Evaluation of IC50 Parameters
(§3) The IC50 parameter was elaborated using “ALLFIT” software.

[2] = target: T2, purified αvβ5 receptor (Homo sapiens, UniProt P06756+P18084); test: Binding to integrin αvβ5 receptors ([125I]echistatin competition); settings: inhibition of [125I]echistatin 0.15 nM binding to purified αvβ5 receptor; read-out: αvβ5 IC50 ± SD
T2 construct: purchased Chemicon CC1020
Description: Binding to Integrin αvβ5 Receptors
as §1, with “0.15” for “0.05”, “Non-specific ligand” for “Non-specific”, “binding” for “binding of the ligand”
as §2, §3

[3] = system: PC3 prostate carcinoma cells; type: cell-based, human; settings: read-out: PC3 IC50, μM 3 h of treatm., cell adhesion to vitronectin, PC3 low levels of both integrins
Description: (§4) Adhesion Assay of Tumor Cells on Vitronectin
(§5) A2780 human ovarian carcinoma and PC3 prostate carcinoma cells were grown in RPMI 1640 containing 10% fetal bovine serum and 50 μg/ml gentamycin sulfate. A498 human renal carcinoma were grown in EMEM containing 10% fetal bovine serum and 50 μg/ml gentamycin sulfate. All the cells were maintained in a 37° C. incubator with saturated humidity and an atmosphere of 95% air and 5% CO2.
(§6) A2780 cell line expresses high levels of αvβ5 integrins, A498 high levels of αvβ3 integrins, and PC3 low levels of both integrins.
To test the effect of the drugs on cell adhesion, the appropriate cellular density (40000-50000 cells/well) for each tumor cell line was incubated with different concentrations of the compounds in 96-well tissue culture plates coated with vitronectin (5 μg/ml) and was allowed to attach for 3 hours. After this time the cells were washed once with PBS containing Ca^2+ e Mg^2+. Tumor cells were fixed with 4% paraformaldehyde for 10 min at room temperature and stained with 1% toluidine blue for 10 min at room temperature. […] The number of adherent cells was determined in a microplate reader (Victor2, EG&G Wallac) at 600 nm.
(§7) An IC50 value as parameter to measure the inhibiting effect of the molecules on tumor cell adhesion to vitronectin was evaluated using “ALLFIT” computer program.

[4] = system: A2780 human ovarian carcinoma; type: cell-based; settings: read-out: A2780 IC50, μM 3 h of treatm., cell adhesion to vitronectin, A2780 high levels of αvβ5 integrins
Description: as §4, §5, §6
(§8) To test the effect of the drugs on cell adhesion, the appropriate cellular density (40000-50000 cells/well) for each tumor cell line was incubated with different concentrations of the compounds in 96-well tissue culture plates coated with vitronectin (5 μg/ml) and was allowed to attach for 3 hours. After this time the cells were washed once with PBS containing Ca^2+ e Mg^2+. Tumor cells were fixed with 4% paraformaldehyde for 10 min at room temperature and stained with 1% toluidine blue for 10 min at room temperature. Tumor cells were washed with bi-distilled water, dried and solubilized with 1% SDS. The number of adherent cells was determined in a microplate reader (Victor2, EG&G Wallac) at 600 nm.
as §7

[5] = system: A498 human renal carcinoma; type: cell-based; settings: read-out: A498 IC50, μM 3 h of treatm., cell adhesion to vitronectin, A498 high levels of αvβ3 integrins
Description: as §4, §5, §6, §8, §7

Row | Structure (SMILES) | IC50 [1] | IC50 [2] [nM] | IC50 [3] [µM] | IC50 [4] [µM] | IC50 [5] [µM]
1 | N=C(N)NCCC[C@@H]1NC(=O)[C@H](Cc2ccc(CN)cc2)NC(=O)[C@@H](Cc2ccccc2)NC(=O)[C@H](CC(=O)O)NC(=O)CNC1=O [ST2581, c(Arg-Gly-Asp-D-Phe-Amp)] | 1.7 nM | 3.4 ± 0.1 |  |  | 
2 | COCCOCCOCCOCC(=O)NCc1ccc(C[C@@H]2NC(=O)[C@@H](Cc3ccccc3)NC(=O)[C@H](CC(=O)O)NC(=O)CNC(=O)[C@H](CCCNC(=N)N)NC2=O)cc1 [ST2597, c[Arg-Gly-Asp-D-Phe-Amp(CO—CH2—(OCH2CH2)3—OCH3)]] | 13.5 ± 0.8 nM | 2.1 ± 0.07 |  |  | 
3 | N=C(N)NCCC[C@@H]1NC(=O)[C@H](Cc2ccc(CNC(=O)CCC(=O)O)cc2)NC(=O)[C@@H](Cc2ccccc2)NC(=O)[C@H](CC(=O)O)NC(=O)CNC1=O [ST2649, c[Arg-Gly-Asp-D-Phe-Amp-(CH2)2COOH]] | 37.6 ± 0.9 nM | 5.1 ± 0.07 | 33.7 ± 7.8 | 9.5 ± 1.9 | 34 ± 2.2
4 | N=C(N)NCCC[C@@H]1NC(=O)[C@H](Cc2ccc(CNC(=O)COCCOCCOCC(=O)O)cc2)NC(=O)[C@@H](Cc2ccccc2)NC(=O)[C@H](CC(=O)O)NC(=O)CNC1=O [ST2661, c[Arg-Gly-Asp-D-Phe-Amp-(CO—CH2—(O—CH2—CH2)2—O—CH2—COOH]] |  |  | 18.8 ± 4.4 | 12.3 ± 0.9 | 10.7 ± 0.4
5 | CN1C(=O)[C@@H](Cc2ccccc2)NC(=O)[C@H](CC(=O)O)NC(=O)CNC(=O)[C@H](CCCNC(=N)N)NC(=O)[C@@H]1Cc1ccc(CN)cc1 [ST2700, c(Arg-Gly-Asp-D-Phe-N-Me-Amp)] | 7 nM and 7.2 nM | 0.99 |  |  | 
6 | N=C(N)NCCC[C@@H]1NC(=O)CN(Cc2ccc(CN)cc2)C(=O)[C@@H](Cc2ccccc2)NC(=O)[C@H](CC(=O)O)NC(=O)CNC1=O [ST2701, c(Arg-Gly-Asp-D-Phe-N-Amb-Gly)] | 36.7 ± 0.7 nM | 2.9 ± 0.1 |  |  | 
7 | CC(C)[C@H]1C(=O)N[C@@H](CCCNC(=N)N)C(=O)NCC(=O)N[C@@H](CC(=O)O)C(=O)N[C@H](Cc2ccccc2)C(=O)N1CCCCCC(=O)O [ST2956, c[Arg-Gly-Asp-D-Phe-N(carboxypentilene)-Val)]] | 30 ± 0.9 nM | 34 ± 1.4 |  |  | 
8 | C=CCOC(=O)CCCCCN1C(=O)[C@@H](Cc2ccccc2)NC(=O)[C@H](CC(=O)O)NC(=O)CNC(=O)[C@H](CCCNC(=N)N)NC(=O)[C@@H]1C(C)C [ST2957, c[Arg-Gly-Asp-D-Phe-N(allyloxycarbonylpentilene)-Val]] | 42.2 ± 0.7 nM | 38.3 ± 1.3 |  |  | 
